Results: patent publication US20160251403A1, “PEPTIDE COMBINATIONS AND USES THEREOF IN TREATING DUST MITE ALLERGY” (ALK-ABELLO A/S, priority 2013, published 2016)
Residue numbers refer to the chain shown, from its start. No end group written: not given here.

How the values were obtained:
DRB1_1302 = DRB1_1302 (Homo sapiens, UniProt P01903+P01911, A100E/A169T/K41T/L162R/M171V/P40S/Q125H/Q178H/Q39Y/Q99D/R42S/S66N/T262R/V115G/W38E/Y61H); assay: Competitive MHC class II binding assay, DRB1_1302;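 note: purified HLA class II protein incubated two to four days with a radiolabeled reference binder and test peptide at six concentrations over a 100,000-fold range, complex-bound radioactivity counted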
DRB1_0901 = DRB1_0901 (Homo sapiens, UniProt P01903+P01911, A100R/A103E/D57H/D86V/F55Y/F60I/F76Y/I96F/K127E/L162R/M171V/P40D/Q125H/Q99R/R33Q/R42F/S133A/S66N/T210M/V115G/W38K/Y107V/Y59G/Y89S); assay: Competitive MHC class II binding assay, DRB1_0901;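 note: displacement of a radiolabeled probe peptide from purified HLA class II protein, bound counts read after two to four days incubation, six concentrations spanning 100,000-fold, unlabeled probe as reference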
DRB1_1501 = DRB1_1501 (Homo sapiens, UniProt P01903+P01911); assay: Competitive MHC class II binding assay, DRB1_1501
DPA10103-DPB10401 = target: T1, DPA10103-DPB10401 (Homo sapiens, UniProt P04440+P20036); assay: Competitive MHC class II binding assay, DPA10103-DPB10401
T1 sequence (P20036 29-260): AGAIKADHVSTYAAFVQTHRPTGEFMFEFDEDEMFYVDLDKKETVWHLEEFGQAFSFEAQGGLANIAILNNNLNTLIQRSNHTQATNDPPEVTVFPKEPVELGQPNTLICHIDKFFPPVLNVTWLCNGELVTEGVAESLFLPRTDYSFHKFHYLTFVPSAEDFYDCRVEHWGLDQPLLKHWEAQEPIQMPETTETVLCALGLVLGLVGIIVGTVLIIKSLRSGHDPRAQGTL
T1 sequence (P04440 30-258): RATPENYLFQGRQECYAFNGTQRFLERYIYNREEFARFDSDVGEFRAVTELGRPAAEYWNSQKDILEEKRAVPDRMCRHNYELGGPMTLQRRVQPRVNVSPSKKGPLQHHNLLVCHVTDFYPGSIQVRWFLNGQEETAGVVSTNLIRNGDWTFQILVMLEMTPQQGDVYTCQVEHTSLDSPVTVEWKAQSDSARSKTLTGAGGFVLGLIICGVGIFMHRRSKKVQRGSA

DRB1_0701 = DRB1_0701 (Homo sapiens, UniProt P01903+P01911, A100R/A102G/A103Q/D57E/D86V/E43K/F76Y/K127E/L162R/M171V/P40G/Q125H/Q99D/R33Q/R42Y/R54Q/S133A/S66F/T210M/V115G/Y107V/Y59L/Y89S); assay: Competitive MHC class II binding assay, DRB1_0701;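 note: displacement of a radiolabeled reference peptide from purified HLA class II protein, with complex-bound radioactivity counted after 2–4 days of incubation and six concentrations spanning a 100,000-fold range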
DQA10101-DQB10501 = DQA10101-DQB10501 (Homo sapiens, UniProt P01909+P01920, A157S/A45G/A70V/C70R/D89V/E106S/E118A/E183D/E77G/F83G/G63E/H151Q/H199R/H252R/H253Q/I129T/I235V/I88M/INS77G/K197Q/L107V/L117V/L119Y/L178F/L71W/L74F/L85Q/L91A/L98M/M46L/N214S/P87R/Q116E/Q256R/Q57E/Q76K/R102G/R240Q/R75S/R78G/S102Y/S185I/S41F/S97I/T103A/T109R/T121G/T122I/T172A/T86R/V148I/V68A/V73E/Y34C/Y58G/Y62H); assay: Competitive MHC class II binding assay, DQA10101-DQB10501; conditions: positive binding at cutoff 1000 nM; read-out: HLA-DQA10101-DQB10501
DRB1_0405 = DRB1_0405 (Homo sapiens, UniProt P01903+P01911, A100R/A169T/D86S/F76Y/I96L/K127E/L162R/M171V/N62H/P40V/Q125Y/R42H/S133A/S149N/S66Y/V115G/V209L/W38E); assay: Competitive MHC class II binding assay, DRB1_0405
DRB1_0401 = DRB1_0401 (Homo sapiens, UniProt P01903+P01911, A100K/A169T/F76Y/I96L/K127E/L162R/M171V/N62H/P40V/Q125Y/R42H/S133A/S149N/S66Y/V115G/V209L/W38E); assay: Competitive MHC class II binding assay, DRB1_0401
DRB4_0101 = DRB4_0101 (Homo sapiens, UniProt P01903+P13762, G164S); assay: Competitive MHC class II binding assay, DRB4_0101
DPA10201-DPB10101 = assay: Competitive MHC class II binding assay, DPA10201-DPB10101; conditions: read-out: HLA-DPA10201-DPB10101; positive binding at cutoff 1000 nM
DRB1_0802 = DRB1_0802 (Homo sapiens, UniProt P01903+P01911, A100R/A103L/A169T/F76Y/H45Y/I96F/K41T/L162R/M171V/P40S/Q125H/Q178H/Q39Y/Q99D/R218S/R42G/S66Y/V115G/W38E); assay: Competitive MHC class II binding assay, DRB1_0802
DRB1_0101 = DRB1_0101 (Homo sapiens, UniProt P01903+P01911, A100R/D57E/F55L/F60I/F76Y/I96L/L162R/M171V/P40L/Q125E/R42F/V115G/Y59C); assay: Competitive MHC class II binding assay, DRB1_0101;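 note: competition against a radiolabeled probe peptide (0.1–1 nM) for purified HLA class II protein over 2–4 days, bound counts read after antibody capture, six competitor levels across 100,000-fold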
DRB5_0101 = DRB5_0101 (Homo sapiens, UniProt P01903+Q30154); assay: Competitive MHC class II binding assay, DRB5_0101
DRB3_0202 = DRB3_0202 (Homo sapiens, UniProt P01903+P79483, A212P/D57E/F66Y/L67A/R103Q/R218S/R40L/S89Y/T80R/V86D/Y55F/Y59H); assay: Competitive MHC class II binding assay, DRB3_0202
DPA10103-DPB10201 = target: T2, DPA10103-DPB10201 (Homo sapiens, UniProt P04440+P20036, A65V/A84D/A85E/K98E); assay: Competitive MHC class II binding assay, DPA10103-DPB10201
T2 sequence (P20036 29-260): T1 sequence (P20036 29-260)
T2 sequence (P04440 30-258 A65V/A84D/A85E/K98E): T1 sequence (P04440 30-258) with A36V, A55D, A56E, K69E

DRB1_1201 = DRB1_1201 (Homo sapiens, UniProt P01903+P01911, A100R/A169T/D57E/D86V/F55L/H45Y/K41T/L162R/M171V/P40S/Q125H/Q178H/Q39Y/Q99D/R42G/S66L/T262R/V114A/V67L/W38E/Y59H/Y61H/Y89S); assay: Competitive MHC class II binding assay, DRB1_1201
DPA10201-DPB11401 = assay: Competitive MHC class II binding assay, DPA10201-DPB11401; conditions: read-out: HLA-DPA10201-DPB11401; positive binding at cutoff 1000 nM
DPA10202-DPB10501 = target: T3, DPA10202-DPB10501 (Homo sapiens, UniProt P04440+P20036, A42M/A65V/A84E/F191V/F64L/G113D/G114E/K142R/L158P/M116V/M62Q/P115A/Q81R/R125K/T114A/T199I/T259P/V234M); assay: Competitive MHC class II binding assay, DPA10202-DPB10501; conditions: positive binding at cutoff 1000 nM; read-out: HLA-DPA10202-DPB10501
T3 sequence (P04440 30-258 A65V/A84E/F64L/G113D/G114E/M116V/P115A/R125K/T199I/V234M): T1 sequence (P04440 30-258) with F35L, A36V, A55E, G84D, G85E, P86A, M87V, R96K, T170I, V205M
T3 sequence (P20036 29-260 A42M/F191V/K142R/L158P/M62Q/Q81R/T114A/T259P): T1 sequence (P20036 29-260) with A14M, M34Q, Q53R, T86A, K114R, L130P, F163V, T231P

DRB1_0301 = DRB1_0301 (Homo sapiens, UniProt P01903+P01911, A100K/A102G/A103R/A169T/F55Y/I96L/K41T/L162R/M171V/P40S/Q125H/Q178H/Q39Y/R42S/S66N/T106N/T262R/W38E/Y61H); assay: Competitive MHC class II binding assay, DRB1_0301
DRB1_1101 = DRB1_1101 (Homo sapiens, UniProt P01903+P01911, A100R/A169T/A87E/I96F/K41T/L162R/M171V/P40S/Q125H/Q178H/Q39Y/Q99D/R42S/S66Y/T262R/V115G/W38E); assay: Competitive MHC class II binding assay, DRB1_1101
DQA10501-DQB10301 = DQA10501-DQB10301 (Homo sapiens, UniProt P01909+P01920); assay: Competitive MHC class II binding assay, DQA10501-DQB10301
DRB3_0101 = DRB3_0101 (Homo sapiens, UniProt P01903+P79483); assay: Competitive MHC class II binding assay, DRB3_0101
DQA10501-DQB10201 = DQA10501-DQB10201 (Homo sapiens, UniProt P01909+P01920, A45G/A70V/D89A/E106A/E77G/E98D/H199R/L107V/N214S/P84L/P87L/T103K/T109R/T172A/T60S/V78E/V99I/Y58L/Y62S/Y69I/Y79F); assay: Competitive MHC class II binding assay, DQA10501-DQB10201
DQA10102-DQB10602 = assay: Competitive MHC class II binding assay, DQA10102-DQB10602; conditions: read-out: HLA-DQA10102-DQB10602; positive binding at cutoff 1000 nM

Measured: IC50

ESAYLAYRNQSLDLAE [pep-009]
not listed: DPA10103-DPB10201 | DRB1_1201 | DPA10201-DPB11401 | DPA10202-DPB10501 | DRB1_0301 | DRB1_1101 | DQA10501-DQB10301 | DRB3_0101 | DQA10501-DQB10201 | DQA10102-DQB10602
< 1000 nM: all other assays above

QQYDIKYTWNVPKIA [pep-031]
not listed: DPA10103-DPB10401 | DRB1_0405 | DPA10201-DPB10101 | DRB1_0101 | DRB1_1101 | DQA10501-DQB10301 | DRB3_0101 | DQA10501-DQB10201 | DQA10102-DQB10602
< 1000 nM: all other assays above

IEYIQHNGVVQESYYRYVAR [pep-049]
not listed: DQA10101-DQB10501 | DRB4_0101 | DPA10201-DPB10101 | DRB1_0802 | DRB1_0101 | DPA10201-DPB11401 | DPA10202-DPB10501
< 1000 nM: all other assays above
